# Values quoted from earlier work as cited in patent US20100234288A1, “SUSTAINED RELEASE PHARMACEUTICAL COMPOSITION ON THE BASIS OF RELEASE SYSTEM COMPRISING AN ACID-SOLUBLE POLYMER AND A pH-DEPENDENT POLYMER” (PANACEA BIOTEC LTD, priority 2006, published 2010).
smiles,measurement,setting,value
"O=C1Cc2cc(CCN3CCN(c4nsc5ccccc45)CC3)c(Cl)cc2N1 [Ziprasidone, 5-[2-[4-(1,2-benzisothiazol-3-yl)-1-piperazinyl]ethyl]-6-chloro-1,3-dihydro-2H-indol-2-one]",time to reach peak plasma concentrations,after oral administration,6 to 8 h
same,effect of food on absorption,"presence of food, gastrointestinal absorption",doubles the absorption
